Assay results from patent US20060079510A1, “Use of PARP-1 inhibitors for protecting tumorcidal lymphocytes from apoptosis” (priority 2004, published 2006).
“Also recorded” adds a separate entry of the source.

Experiments:
[1] = tested on: peripheral blood lymphocytes; assay: Oxidant-induced cell death in lymphocytes incubated with mononuclear phagocytes or hydrogen peroxide, flow cytometry; type: cell-based, human; details: for protection of lymphocytes from phagocyte- or hydrogen peroxide-induced (oxidant/ROS-induced) cell death / apoptosis: pretreatment, PJ34 250 nM, DPQ 3 μM, Z-VAD.fmk 100 μM, overnight incubation with phagocytes or H2O2
Description: Peripheral venous blood was obtained as freshly prepared leukopacks from healthy blood donors at the Blood Centre, Sahlgren's Hospital, Göteborg, Sweden, to study the activation characteristics of cytotoxic lymphocytes in the presence and absence of MO, and ROM inhibitors. The blood (65 ml) was mixed with 92.5 ml Iscove's medium, 35 ml 6% Dextran (Kabi Pharmacia, Stockholm, Sweden) and 7.5 ml acid citrate dextrose (ACD) (Baxter, Deerfield, Ill.). After incubation for 15 minutes at room temperature, the supernatant was carefully layered onto Ficoll-Hypaque (Lymphoprep, Myegaard, Norway). Mononuclear cells (MNC) were collected at the interface after centrifugation at 380 g for 15 minutes at room temperature, washed twice in PBS and resuspended in Iscove's medium supplemented with 10% human AB^+ serum. During all further separation of cells, the cell suspensions were kept in siliconized test tubes (Vacuette, Greiner, Stockholm).
The MNC were further separated into lymphocyte and monocyte (MO) populations using the counter-current centrifugal elutriation (CCE) technique originally described by Yasaka and co-workers (Yasaka, T. et al., J. Immunol., 127:1515) with modifications as described in Hansson, M., et al. (J. Immunol., 156: 42 (1996); hereby incorporated by reference). Briefly, the sedimentation rate of cells in a spinning rotor was balanced by a counter-directed flow through the chamber. By slowly increasing the flow rate, fractions of cells of well-defined sizes were collected. The MNC were resuspended in elutration buffer containing 0.5% BSA (ICN Biomedicals Inc., Aurora, Ohio) and 0.1% EDTA (VWR, Göteborg, Sweden) in buffered NaCl and fed into a Beckman J2-21 ultracentrifuge with a JE-6B rotor (Bechman Coulter Inc., Fullerton, Calif.) at 2100 rpm. A fraction with >90% MO was obtained at a flow rate of 19 ml/min. A lymphocyte fraction enriched for NK-cells (CD3^−/56^+ phenotype) and T-cells (CD3^+/56^−) was recovered at flow rates of 14-15 ml/min. This fraction contained <3% MO and consisted of CD3ε^−/56^+ NK-cells (45-50%), CD3ε^+/56^− T-cells (35-40%), CD3ε^−/56^− cells (5-10%), and CD3ε^+/56^+ cells (1-5%), as judged by flow cytometry. In some experiments, dynabeads (Dynal A/S, Oslo, Norway) coated with anti-CD56 were used to obtain purified lymphocyte preparations of T-cells, as described in detail by Hansson, M., et al., incorporated above.
Briefly, lymphocytes were incubated overnight with autologous mononuclear phagocytes in the presence or absence of catalase (200 U/ml), histamine ([…]) or DPI (3 μM).
Briefly, lymphocytes, pretreated with PJ34 (250 ηM), Z-VAD.fmk (100 μM) or medium, were subjected to mononuclear phagocytes at different Mo/Ly ratios (FIG. 5A) or to different concentrations of H2O2 (FIG. 5C). FIGS. 5A-5D illustrate that PJ34 protected lymphocytes from cell death induced by phagocytes ([…], ratio 1:1, p<0.05) and hydrogen peroxide (FIGS. 5C and 5D, 250 μM, p<0.001).

[2] = tested on: tumoricidal lymphocytes; assay: Tumor-killing function of tumoricidal lymphocytes after phagocyte or hydrogen peroxide exposure; type: cell-based, human; details: PJ34 250 nM or DPQ 3 μM
Excerpt: As detailed above, a significant part of the dysfunction of tumor-killing lymphocytes at the site of malignant tumor growth has been attributed to inhibitory signals from tumor-infiltrating or tumor-adjacent phagocytes. […] However, the molecular events underlying phagocyte-induced lymphocyte apoptosis are not fully understood. The role of two enzyme systems responsible for induction and execution of apoptosis, caspases and the poly(ADP-ribose) polymerase (PARP) were investigated. Human tumoricidal lymphocytes were incubated with autologous mononuclear phagocytes or with exogenously added hydrogen peroxide, and assayed for apoptotic features at various time points. […] It is therefore believed that PARP-dependent cell death may be critically involved in phagocyte-dependent, oxygen free radical-induced cell death.

[3] = tested on: caspase-3; assay: Caspase activation in lymphocytes, FLICA assay (FAM-VAD.fmk), flow cytometry; type: cell-based, human; details: overnight, phagocytes ratio 1:1 or H2O2 250 μM; PJ34 pretreatment printed as 250 μM and 250 ηM
Description: To study the role of caspases for ROS-induced cell death in anti-neoplastic cells, lymphocytes subjected to phagocytes or hydrogen peroxide were assayed for binding of a fluorochrome-conjugated caspase-3 inhibitor. Briefly, lymphocytes were incubated overnight with hydrogen peroxide (250 μM) or ROS-producing phagocytes (Ph, ratio 1:1) and then assayed for caspase activation using a Fluorochrome-Labeled Inhibitor of Caspases (FLICA) assay. Lymphocytes were incubated with a FITC-labeled caspase inhibitor (FAM-VAD.fmk, MP Biomedicals, Irvine, Calif.) for one hour according to the instructions provided by the manufacturer, and the percentage of cells with active caspase-3 was determined using flow cytometry. Caspase-3 activation was also monitored using the fluorogenic caspase-3 substrate PhiPhiLux (Oncolmmunin, Gaithersburg, Md.) according to the manufacturer's instructions. The FLICA reagent traverses the membranes of all cells and bind to the active site of activated caspase 3. Thus, only cells with activated caspases will retain the reagent and become fluorescent.
Briefly, after overnight incubation with mononuclear phagocytes (Ph, ratio 1:1) or hydrogen peroxide (250 μM) in the presence or absence of PJ34 (250 μM), lymphocytes were stained with a FITC-labeled caspase inhibitor (FAM-VAD.fmk) and assayed for caspase activation using flow cytometry. […]

[4] = tested on: lymphocytes; assay: Altered mitochondrial transmembrane potential (Mitochondrial Membrane Sensor Kit) and To-Pro-3 staining; type: cell-based, human; details: H2O2 250 μM or mononuclear phagocytes; PJ34 250 μM as printed
Description: A Mitochondrial Membrane Sensor Kit (BD Clontech) was used to identify cells with altered mitochondrial transmembrane potential according to the manufacturer's protocol.
Briefly, lymphocytes exposed to hydrogen peroxide (250 μM) were assayed for altered mitochondrial transmembrane potential and plasma membrane integrity at various time points. Depolarization of the Ψm is seen as an increase in green fluorescence (mitosensor monomers).

[5] = tested on: Hepatitis C; assay: Treatment of subjects suffering from Hepatitis C (Example 3); type: in vivo, human; details: PJ34 100 mg/day intravenously, three weeks
Description: Subjects suffering from Hepatitis C are identified. Individuals are administered 100 mg/day of a PARP-1 inhibitor, PJ34, intravenously for a period of three weeks.

[6] = tested on: NK cells; details: cited from earlier work
[7] = tested on: NK cells; details: histamine and IL-2; cited from earlier work
[8] = tested on: melanoma cell lines; details: histamine and IL-2 given prior to inoculation; cited from earlier work
[9] = tested on: herpes simplex virus (HSV); details: cited from earlier work
[10] = tested on: human lymphocytes; assay: Large-scale DNA fragmentation, pulsed-field gel electrophoresis; type: cell-based; details: cells treated with Z-VAD.fmk and 250 μM H2O2, 16 hours
Description: Translocation of AIF to the nucleus has been associated with large-scale DNA fragmentation. The observed accumulation of nuclear AIF after challenge with H2O2 led to investigation as to whether large-scale DNA fragmentation accompanied lymphocyte cell death. To that end, lymphocytes were exposed to H2O2, cast into agarose plugs and analyzed using pulsed-field gel electrophoresis. Briefly, human lymphocytes were exposed to 250 μM H2O2 and incubated overnight at 37° C. After 16 hours, the cells were washed twice with PBS and resuspended in PBS. Cells were mixed with an equal volume of 2% low melting point agarose and cast into agarose plugs. After solidifying, plugs were incubated overnight at 56° C. in a buffer containing 0.2% Sodium deoxycholate and 0.5% N-lauroyl sarcosine supplemented with 0.5 mg/ml proteinase K.

[11] = vs subjects without PARP-1 inhibitor

Row | Compound | protection from cell death induced by hydrogen peroxide (FIGS. 5C and 5D) ([1]; PJ34 250 ηM, H2O2 250 μM, p<0.001) | protection from cell death induced by phagocytes ([1]; PJ34 250 ηM, Mo/Ly ratio 1:1, p<0.05) | protection of lymphocytes from phagocyte- or hydrogen peroxide-induced (oxidant/ROS-induced) cell death / apoptosis [1] | restoration of tumor-killing function [2] | caspase activation triggered by phagocytes and H2O2 (FIG. 3) [3] | protection from oxidant-induced alterations of Ψm (FIG. 4) [4] | symptoms associated with Hepatitis C [5] | ROM-mediated damage [5, 11] | cytotoxic lymphocyte activation [5, 11] | protection of lymphocytes from phagocyte-induced cell death (FIG. 1) ([1]; overnight with autologous mononuclear phagocytes, catalase 200 U/ml, histamine, DPI 3 μM, p<0.001, n=4) | monocyte mediated NK cell suppression ([6]; histamine and IL-2) | NK cell cytotoxicity ([6]; histamine and IL-2 in the presence of monocytes, relative to IL-2 only) | effect on NK mediated cytotoxicity ([6]; in the absence of monocytes) | granulocyte mediated NK cell suppression [7] | development of lung metastatic foci [8] | survival time, combination ([9]; combination of histamine and IL-2) | survival time ([9]; single dose of histamine) | DNA fragments on pulsed-field gel (FIG. 7) [10]
1 | CN(C)CC(=O)Nc1ccc2[nH]c(=O)c3ccccc3c2c1 [PJ34] | protected | protected | completely protected; also recorded: resisted the oxidative stress | restored | reversed | protected | reduction in symptoms associated with Hepatitis C | reduction in ROM-mediated damage | increase in cytotoxic lymphocyte activation | – | – | – | – | – | – | – | – | –
2 | NCCc1c[nH]cn1 [histamine] | – | – | – | – | – | – | – | – | – | fully protected | complete or nearly complete abrogation | elevated levels of cytotoxicity | no effect or weakly suppressed | only partially removed | protected | synergistic effect | prolong survival time | –
3 | Z-VAD.fmk | – | – | only partially protected; also recorded: failed to protect | – | – | failed to display any significant protective effect | – | – | – | – | – | – | – | – | – | – | – | distinct band (approx. 50 kb)
